From PMC5218480 (PLoS ONE, 2017)

Test system: MV-4-11 cells
Test: Gene expression microarray analysis (Affymetrix PrimeView) and GSEA
Assay type: cell-based, human
Set-up: RFU PODN (11730768_x_at) / Fold change /veh PODN (11730768_x_at) / RFU LINC00158 (11744669_a_at) / Fold change /veh LINC00158 (11744669_a_at) / RFU DUSP10 (11751237_a_at) / Fold change /veh DUSP10 (11751237_a_at) / RFU ID3 (11757404_x_at) / Fold change /veh ID3 (11757404_x_at) / RFU PLEKHG5 (11737974_s_at) / Fold change /veh PLEKHG5 (11737974_s_at) / RFU LRRC4B (11730491_at) / Fold change /veh LRRC4B (11730491_at) / RFU GIMAP4 (11747438_a_at) / Fold change /veh GIMAP4 (11747438_a_at) / RFU KRT8 (11758183_x_at) / Fold change /veh KRT8 (11758183_x_at) / RFU CNN1 (11734310_a_at) / Fold change /veh CNN1 (11734310_a_at) / RFU VPS37D (11726825_at) / Fold change /veh VPS37D (11726825_at) / RFU C10orf10 (11716522_x_at) / Fold change /veh C10orf10 (11716522_x_at) / RFU KIR2DL2 /// KIR2DL4 /// KIR2DL5A /// KIR2DL5B /// KIR2DS1 /// KIR2DS2 /// KIR2DS3 /// KIR2DS4 /// KIR3DL3 /// KIR3DL3 /// KIR3DS1 (11738374_at) / Fold change /veh KIR2DL2 /// KIR2DL4 /// KIR2DL5A /// KIR2DL5B /// KIR2DS1 /// KIR2DS2 /// KIR2DS3 /// KIR2DS4 /// KIR3DL3 /// KIR3DL3 /// KIR3DS1 (11738374_at) / RFU C1QL1 (11718748_at) / Fold change /veh C1QL1 (11718748_at) / RFU TMPRSS4 (11747572_a_at) / Fold change /veh TMPRSS4 (11747572_a_at) / RFU HAMP (11756126_x_at) / Fold change /veh HAMP (11756126_x_at) / RFU RNFT2 (11725882_a_at) / Fold change /veh RNFT2 (11725882_a_at) / RFU NR4A2 (11747474_a_at) / Fold change /veh NR4A2 (11747474_a_at) / RFU ABCC12 (11746883_a_at) / Fold change /veh ABCC12 (11746883_a_at) / RFU TMEM136 (11760407_x_at) / Fold change /veh TMEM136 (11760407_x_at) / RFU CLDN22 /// WWC2 (11732394_at) / Fold change /veh CLDN22 /// WWC2 (11732394_at) / RFU HLA-DPB1 (11760878_x_at) / Fold change /veh HLA-DPB1 (11760878_x_at) / RFU SPINT1 (11716480_a_at) / Fold change /veh SPINT1 (11716480_a_at) / RFU GAP43 (11754022_s_at) / Fold change /veh GAP43 (11754022_s_at) / RFU A4GNT (11735810_at) / Fold change /veh A4GNT (11735810_at) / RFU PRB3 (11715151_x_at) / Fold change /veh PRB3 (11715151_x_at) / RFU TUBB4B (11761932_at) / Fold change /veh TUBB4B (11761932_at) / RFU CAPN14 (11732068_a_at) / Fold change /veh CAPN14 (11732068_a_at) / RFU TMCC2 (11721928_a_at) / Fold change /veh TMCC2 (11721928_a_at) / RFU IRGQ (11745062_a_at) / Fold change /veh IRGQ (11745062_a_at) / RFU FAM174B (11720279_a_at) / Fold change /veh FAM174B (11720279_a_at) / RFU TMPRSS4 (11748680_a_at) / Fold change /veh TMPRSS4 (11748680_a_at) / RFU FAM212B (11763350_a_at) / Fold change /veh FAM212B (11763350_a_at) / RFU PLEKHG5 (11743358_a_at) / Fold change /veh PLEKHG5 (11743358_a_at) / RFU ZSCAN30 (11745921_a_at) / Fold change /veh ZSCAN30 (11745921_a_at) / RFU CMKLR1 (11741424_a_at) / Fold change /veh CMKLR1 (11741424_a_at) / RFU LOC101060620 /// MAPK8IP1 (11723275_at) / Fold change /veh LOC101060620 /// MAPK8IP1 (11723275_at) / RFU SPTSSB (11747773_x_at) / Fold change /veh SPTSSB (11747773_x_at) / RFU PRSS12 (11739890_at) / Fold change /veh PRSS12 (11739890_at) / RFU BIN1 (11741810_x_at) / Fold change /veh BIN1 (11741810_x_at) / RFU WNT11 (11732464_a_at) / Fold change /veh WNT11 (11732464_a_at) / RFU C10orf10 (11716521_a_at) / Fold change /veh C10orf10 (11716521_a_at) / RFU C5orf56 (11738089_at) / Fold change /veh C5orf56 (11738089_at) / RFU CYB561 (11721691_x_at) / Fold change /veh CYB561 (11721691_x_at) / RFU ANKRD19P (11752326_a_at) / Fold change /veh ANKRD19P (11752326_a_at) / RFU OR2T12 /// OR2T33 /// OR2T8 (11738714_s_at) / Fold change /veh OR2T12 /// OR2T33 /// OR2T8 (11738714_s_at) / RFU VCAN (11748164_a_at) / Fold change /veh VCAN (11748164_a_at) / RFU JSRP1 (11732532_at) / Fold change /veh JSRP1 (11732532_at) / RFU KRTAP10-11 (11738290_x_at) / Fold change /veh KRTAP10-11 (11738290_x_at) / RFU MYO3A (11730013_a_at) / Fold change /veh MYO3A (11730013_a_at) / RFU EBF3 (11725865_a_at) / Fold change /veh EBF3 (11725865_a_at) / RFU CAMK2N1 (11719241_x_at) / Fold change /veh CAMK2N1 (11719241_x_at) / RFU C5orf56 (11738088_a_at) / Fold change /veh C5orf56 (11738088_a_at) / RFU OLFML3 (11715873_a_at) / Fold change /veh OLFML3 (11715873_a_at) / RFU LOC100653217 /// NTM (11731650_a_at) / Fold change /veh LOC100653217 /// NTM (11731650_a_at) / RFU MAPK11 (11762145_a_at) / Fold change /veh MAPK11 (11762145_a_at) / RFU FIZ1 (11724087_x_at) / Fold change /veh FIZ1 (11724087_x_at) / RFU OASL (11726364_x_at) / Fold change /veh OASL (11726364_x_at) / RFU SOX15 (11748057_x_at) / Fold change /veh SOX15 (11748057_x_at) / RFU CD79A (11719716_a_at) / Fold change /veh CD79A (11719716_a_at) / RFU HIST1H1D (11736915_at) / Fold change /veh HIST1H1D (11736915_at) / RFU CASKIN2 (11723855_a_at) / Fold change /veh CASKIN2 (11723855_a_at) / RFU LOC730098 (11760151_x_at) / Fold change /veh LOC730098 (11760151_x_at) / RFU OR4N2 (11742367_at) / Fold change /veh OR4N2 (11742367_at) / RFU PRRT2 (11749266_a_at) / Fold change /veh PRRT2 (11749266_a_at) / RFU SNX32 (11753110_a_at) / Fold change /veh SNX32 (11753110_a_at) / RFU CDHR5 (11726645_a_at) / Fold change /veh CDHR5 (11726645_a_at) / RFU RCAN1 (11760418_a_at) / Fold change /veh RCAN1 (11760418_a_at) / RFU FAM167A (11723789_a_at) / Fold change /veh FAM167A (11723789_a_at) / RFU FAM26E (11764081_at) / Fold change /veh FAM26E (11764081_at) / RFU ISYNA1 (11749810_s_at) / Fold change /veh ISYNA1 (11749810_s_at) / RFU ACY1 (11761880_at) / Fold change /veh ACY1 (11761880_at) / RFU 11764098_at / Fold change /veh 11764098_at / RFU SAMD14 (11745864_x_at) / Fold change /veh SAMD14 (11745864_x_at) / RFU NPB (11741838_a_at) / Fold change /veh NPB (11741838_a_at) / RFU TMPRSS6 (11731388_a_at) / Fold change /veh TMPRSS6 (11731388_a_at) / RFU KRTAP10-2 (11738614_at) / Fold change /veh KRTAP10-2 (11738614_at) / RFU ARHGAP8 /// PRR5-ARHGAP8 (11727945_x_at) / Fold change /veh ARHGAP8 /// PRR5-ARHGAP8 (11727945_x_at) / RFU KRTAP5-7 /// NADSYN1 (11734609_at) / Fold change /veh KRTAP5-7 /// NADSYN1 (11734609_at) / RFU RASL12 (11751679_a_at) / Fold change /veh RASL12 (11751679_a_at) / RFU CDKN2B (11736163_a_at) / Fold change /veh CDKN2B (11736163_a_at) / RFU PRF1 (11729649_at) / Fold change /veh PRF1 (11729649_at) / RFU, ZNF638 /// ZNF638-IT1 / Fold change vs veh, ZNF638 /// ZNF638-IT1 / RFU, PANK3 / Fold change vs veh, PANK3 / RFU, SH3YL1 / Fold change vs veh, SH3YL1 / RFU, ZEB2 / Fold change vs veh, ZEB2 / RFU, NRIP1 / Fold change vs veh, NRIP1 / RFU, PTTG1IP / Fold change vs veh, PTTG1IP / RFU, CAPN2 / Fold change vs veh, CAPN2 / RFU, MED14 / Fold change vs veh, MED14 / RFU, SNORA58 / Fold change vs veh, SNORA58 / RFU, C1orf63 / Fold change vs veh, C1orf63 / RFU, LRRFIP1 / Fold change vs veh, LRRFIP1 / RFU, NDUFAF7 / Fold change vs veh, NDUFAF7 / RFU, SLC12A2 / Fold change vs veh, SLC12A2 / RFU, IBTK / Fold change vs veh, IBTK / RFU, ESF1 / Fold change vs veh, ESF1 / Fold change vs veh, TMEM50B / RFU, TAOK1 / Fold change vs veh, TAOK1 / RFU, ACBD3 / Fold change vs veh, ACBD3 / RFU, TMA16 / Fold change vs veh, TMA16 / RFU, RWDD3 / Fold change vs veh, RWDD3 / RFU, BCAT1 / Fold change vs veh, BCAT1 / RFU, EDEM3 / Fold change vs veh, EDEM3 / RFU, TMEM33 / Fold change vs veh, TMEM33 / RFU, WDR75 / Fold change vs veh, WDR75 / RFU, AHCTF1 / Fold change vs veh, AHCTF1 / RFU, TFRC / Fold change vs veh, TFRC / RFU, ZDHHC17 / Fold change vs veh, ZDHHC17 / RFU, NOM1 / Fold change vs veh, NOM1 / RFU, ARL8B / Fold change vs veh, ARL8B / RFU, ZBTB11 / Fold change vs veh, ZBTB11 / RFU, TAMM41 / Fold change vs veh, TAMM41 / RFU, KIAA1704 /// LOC100996395 / Fold change vs veh, KIAA1704 /// LOC100996395 / RFU, ING1 / Fold change vs veh, ING1 / RFU, TRMT61B / Fold change vs veh, TRMT61B / RFU, FUBP3 / Fold change vs veh, FUBP3 / RFU, TP53 / Fold change vs veh, TP53 / RFU, TNKS2 / Fold change vs veh, TNKS2 / RFU, ZFP14 / Fold change vs veh, ZFP14 / RFU, ACTR2 / Fold change vs veh, ACTR2 / RFU, PPP3R1 / Fold change vs veh, PPP3R1 / RFU, PIK3R1 / Fold change vs veh, PIK3R1 / RFU, HNRNPA1 / Fold change vs veh, HNRNPA1 / RFU, RNF170 / Fold change vs veh, RNF170 / RFU, ZNF28 / Fold change vs veh, ZNF28 / RFU, RNGTT / Fold change vs veh, RNGTT / RFU, OGT / Fold change vs veh, OGT / RFU, BRD1 / Fold change vs veh, BRD1 / RFU, MARS / Fold change vs veh, MARS / RFU, ZNF655 / Fold change vs veh, ZNF655 / RFU, FAHD1 / Fold change vs veh, FAHD1 / RFU, BDP1 / Fold change vs veh, BDP1 / RFU, LRRCC1 / Fold change vs veh, LRRCC1 / RFU, ARID1A / Fold change vs veh, ARID1A / RFU, ZNF146 / Fold change vs veh, ZNF146 / RFU, ZNF330 / Fold change vs veh, ZNF330 / RFU, GPN3 / Fold change vs veh, GPN3 / RFU, C9orf123 / Fold change vs veh, C9orf123 / RFU, N4BP2L2 / Fold change vs veh, N4BP2L2 / RFU, ARFIP1 / Fold change vs veh, ARFIP1 / RFU, FAM179B / Fold change vs veh, FAM179B / RFU, BCL10 / Fold change vs veh, BCL10 / RFU, UHRF1BP1L / Fold change vs veh, UHRF1BP1L / RFU, BET1 / Fold change vs veh, BET1 / RFU, CNOT2 / Fold change vs veh, CNOT2 / RFU, ZNF268 / Fold change vs veh, ZNF268 / Fold change vs veh, ZNF507 / RFU, DGCR2 / Fold change vs veh, DGCR2 / RFU, WDSUB1 / Fold change vs veh, WDSUB1 / Fold change vs veh, HSP90B1 /// MIR3652 / RFU, ADSS / Fold change vs veh, ADSS / RFU, GK / Fold change vs veh, GK / RFU, ZNF148 / Fold change vs veh, ZNF148 / RFU, TAF9 / Fold change vs veh, TAF9 / RFU, SLC1A5 / Fold change vs veh, SLC1A5 / RFU, SLMO2 / Fold change vs veh, SLMO2 / RFU, ABCC4 / Fold change vs veh, ABCC4 / RFU, LOC101060439 /// RAP1B / Fold change vs veh, LOC101060439 /// RAP1B / RFU, RFX7 / Fold change vs veh, RFX7 / RFU, GTPBP10 / Fold change vs veh, GTPBP10 / RFU, CNEP1R1 / Fold change vs veh, CNEP1R1 / RFU, BIVM-ERCC5 /// ERCC5 / Fold change vs veh, BIVM-ERCC5 /// ERCC5 / RFU, ILF3 / Fold change vs veh, ILF3 / RFU 11762660_at / Fold change /veh 11762660_at / RFU VCAN (11757783_s_at) / Fold change /veh VCAN (11757783_s_at) / RFU DDX43 (11728927_at) / Fold change /veh DDX43 (11728927_at) / RFU KRT8 (11758188_x_at) / Fold change /veh KRT8 (11758188_x_at) / RFU NKD1 (11759106_at) / Fold change /veh NKD1 (11759106_at) / RFU SRD5A1 (11742802_a_at) / Fold change /veh SRD5A1 (11742802_a_at) / RFU TPSAB1 /// TPSB2 (11721975_s_at) / Fold change /veh TPSAB1 /// TPSB2 (11721975_s_at) / RFU GSTM3 (11746129_a_at) / Fold change /veh GSTM3 (11746129_a_at) / RFU IL23R (11737362_x_at) / Fold change /veh IL23R (11737362_x_at) / RFU TMEM51 (11727254_a_at) / Fold change /veh TMEM51 (11727254_a_at) / RFU PIWIL2 (11732686_x_at) / Fold change /veh PIWIL2 (11732686_x_at) / RFU ORM1 (11744905_x_at) / Fold change /veh ORM1 (11744905_x_at) / RFU CCDC152 (11743942_at) / Fold change /veh CCDC152 (11743942_at) / RFU ECM1 (11717891_a_at) / Fold change /veh ECM1 (11717891_a_at) / RFU IL23R (11748794_a_at) / Fold change /veh IL23R (11748794_a_at) / RFU TNFAIP8L3 (11732012_x_at) / Fold change /veh TNFAIP8L3 (11732012_x_at) / RFU MBOAT4 (11741988_at) / Fold change /veh MBOAT4 (11741988_at) / RFU 11764193_at / Fold change /veh 11764193_at / RFU TMEM53 (11763286_at) / Fold change /veh TMEM53 (11763286_at) / RFU MAGEB2 (11727129_at) / Fold change /veh MAGEB2 (11727129_at) / RFU TMEM200A (11744735_a_at) / Fold change /veh TMEM200A (11744735_a_at) / RFU CCDC152 (11751479_a_at) / Fold change /veh CCDC152 (11751479_a_at) / RFU FAM211A (11726209_a_at) / Fold change /veh FAM211A (11726209_a_at) / RFU RGS16 (11746705_a_at) / Fold change /veh RGS16 (11746705_a_at) / RFU VCAN (11755009_s_at) / Fold change /veh VCAN (11755009_s_at) / RFU RHOB (11743442_s_at) / Fold change /veh RHOB (11743442_s_at) / RFU RGS16 (11720943_a_at) / Fold change /veh RGS16 (11720943_a_at) / RFU RGS16 (11720944_at) / Fold change /veh RGS16 (11720944_at) / RFU, VPS4B / Fold change vs veh, VPS4B / RFU, CREB1 / Fold change vs veh, CREB1 / RFU, DNAJC13 / Fold change vs veh, DNAJC13 / RFU, GNAQ / Fold change vs veh, GNAQ / RFU, CDK5R1 / Fold change vs veh, CDK5R1 / RFU, ZRANB3 / Fold change vs veh, ZRANB3 / RFU, CUL4A / Fold change vs veh, CUL4A / RFU, CCNY / Fold change vs veh, CCNY / RFU, UFL1 / Fold change vs veh, UFL1 / RFU, COG3 / Fold change vs veh, COG3 / RFU, DIAPH2 / Fold change vs veh, DIAPH2 / RFU, SKA2 / Fold change vs veh, SKA2 / RFU, AFF3 / Fold change vs veh, AFF3 / RFU, LMF1 / Fold change vs veh, LMF1 / RFU, IPO11 / Fold change vs veh, IPO11 / RFU, DFFB / Fold change vs veh, DFFB / RFU, FOXP1 / Fold change vs veh, FOXP1 / RFU, CARD8 / Fold change vs veh, CARD8 / RFU, STRN3 / Fold change vs veh, STRN3 / RFU, ADK / Fold change vs veh, ADK / RFU, RASSF2 / Fold change vs veh, RASSF2 / RFU, WIPF1 / Fold change vs veh, WIPF1 / RFU, LARP1B / Fold change vs veh, LARP1B / RFU, RASA1 / Fold change vs veh, RASA1 / RFU, RB1 / Fold change vs veh, RB1 / RFU, PPFIA1 / Fold change vs veh, PPFIA1 / RFU, MAT2A / Fold change vs veh, MAT2A / RFU, CCT5 / Fold change vs veh, CCT5 / RFU, WDR92 / Fold change vs veh, WDR92 / RFU, CUX1 / Fold change vs veh, CUX1 / RFU, TTC7A / Fold change vs veh, TTC7A / RFU, TMEM135 / Fold change vs veh, TMEM135 / RFU, DEPTOR / Fold change vs veh, DEPTOR / RFU, CPM / Fold change vs veh, CPM / RFU, DNAJB6 / Fold change vs veh, DNAJB6 / RFU, CACNA2D3 / Fold change vs veh, CACNA2D3 / RFU, DTX4 / Fold change vs veh, DTX4 / RFU, TFCP2 / Fold change vs veh, TFCP2 / RFU, GMCL1 /// GMCL1P1 / Fold change vs veh, GMCL1 /// GMCL1P1 / RFU, AEBP2 / Fold change vs veh, AEBP2 / RFU, SNHG1 /// SNORD22 /// SNORD25 /// SNORD26 /// SNORD27 /// SNORD28 /// SNORD29 /// SNORD31 / Fold change vs veh, SNHG1 /// SNORD22 /// SNORD25 /// SNORD26 /// SNORD27 /// SNORD28 /// SNORD29 /// SNORD31 / Fold change (Aza/veh), C12orf56 (ProbeSet 11735607_a_at) / Fold change (ACY-1035/veh), C12orf56 (ProbeSet 11735607_a_at) / Fold change (Aza/veh), FGFR1OP (ProbeSet 11751329_s_at) / Fold change (ACY-1035/veh), FGFR1OP (ProbeSet 11751329_s_at) / Fold change (Aza/veh), VPS36 (ProbeSet 11739960_a_at) / Fold change (ACY-1035/veh), VPS36 (ProbeSet 11739960_a_at) / RFU SYPL1 (11715823_x_at) / Fold change /veh SYPL1 (11715823_x_at) / RFU IGFBP7 (11715501_s_at) / Fold change /veh IGFBP7 (11715501_s_at) / RFU REEP3 (11722064_at) / Fold change /veh REEP3 (11722064_at) / RFU IGLL1 (11728026_x_at) / Fold change /veh IGLL1 (11728026_x_at): dose or concentration left out as unconfirmed
Settings: MV-4-11 cells, 48 hours

For `Nc1ncn([C@@H]2O[C@H](CO)[C@@H](O)[C@H]2O)c(=O)n1` [azacitidine], the “RFU PODN (11730768_x_at)” value was 27.35 RFU.
